Test results: patent publication US20250144067A1, “PERSONALIZED STARVATION THERAPY FOR CANCER” (Faeth Therapeutics, Inc., priority 2021, published 2025)
Structures can show the parent of a compound that is named as a salt.

tested on: NCI-H292 lung cancer cells; assay: FDA drug screening, complete media vs cholesterol-free media with simvastatin (TABLE 2); type: cell-based, human; conditions: NCI-H292 cells, FDA drug library screen, cholesterol-free media with simvastatin 0.04 μM

| Structure (SMILES) | Cholesterol-free media + simvastatin (0.04 μM) |
| --- | --- |
| CC[C@@H]([C@H](C)O)n1ncn(-c2ccc(N3CCN(c4ccc(OC[C@@H]5CO[C@@](Cn6cncn6)(c6ccc(F)cc6F)C5)cc4)CC3)cc2)c1=O [Posaconazole] | 1.5 |
| C#CCC(Cc1cnc2nc(N)nc(N)c2n1)c1ccc(C(=O)N[C@@H](CCC(=O)O)C(=O)O)cc1 (stereo partly drawn) [Pralatrexate] | 0.194 |
| C[n+]1ccccc1C=NO.[I-] [Pralidoxime (iodide)] | 0.9948 |
| CCCN[C@H]1CCc2nc(N)sc2C1 [Pramipexole (dihydrochloride hydrate)] | 1.173 |
| CCCCOc1ccc(OCCCN2CCOCC2)cc1 [Pramocaine (hydrochloride)] | 0.6469 |
| O=C(Nc1cccc2c(=O)cc(-c3nnn[nH]3)oc12)c1ccc(OCCCCc2ccccc2)cc1 [Pranlukast] | 0.7995 |
| CC(=O)Oc1cc2c(s1)CCN(C(C(=O)C1CC1)c1ccccc1F)C2 (stereo not drawn) [Prasugrel] | 1.012 |
| COc1cc2nc(N3CCN(C(=O)c4ccco4)CC3)nc(N)c2cc1OC [Prazosin (hydrochloride)] | 1.23 |
| CC(=O)OCC(=O)[C@@]1(O)CC[C@H]2[C@@H]3CCC4=CC(=O)C=C[C@]4(C)[C@H]3[C@@H](O)C[C@@]21C [Prednisolone acetate] | 0.7463 |
| CCC1(c2ccccc2)C(=O)NCNC1=O [Primidone] | 0.9863 |

same assay, conditions: NCI-H292 cells, FDA drug library screen, complete media

| Structure (SMILES) | Complete Media |
| --- | --- |
| CC[C@@H]([C@H](C)O)n1ncn(-c2ccc(N3CCN(c4ccc(OC[C@@H]5CO[C@@](Cn6cncn6)(c6ccc(F)cc6F)C5)cc4)CC3)cc2)c1=O [Posaconazole] | 1.904 |
| C#CCC(Cc1cnc2nc(N)nc(N)c2n1)c1ccc(C(=O)N[C@@H](CCC(=O)O)C(=O)O)cc1 (stereo partly drawn) [Pralatrexate] | 0.0957 |
| C[n+]1ccccc1C=NO.[I-] [Pralidoxime (iodide)] | 0.8823 |
| CCCN[C@H]1CCc2nc(N)sc2C1 [Pramipexole (dihydrochloride hydrate)] | 1.35 |
| CCCCOc1ccc(OCCCN2CCOCC2)cc1 [Pramocaine (hydrochloride)] | 1.047 |
| O=C(Nc1cccc2c(=O)cc(-c3nnn[nH]3)oc12)c1ccc(OCCCCc2ccccc2)cc1 [Pranlukast] | 1.23 |
| CC(=O)Oc1cc2c(s1)CCN(C(C(=O)C1CC1)c1ccccc1F)C2 (stereo not drawn) [Prasugrel] | 0.9091 |
| COc1cc2nc(N3CCN(C(=O)c4ccco4)CC3)nc(N)c2cc1OC [Prazosin (hydrochloride)] | 1.079 |
| CC(=O)OCC(=O)[C@@]1(O)CC[C@H]2[C@@H]3CCC4=CC(=O)C=C[C@]4(C)[C@H]3[C@@H](O)C[C@@]21C [Prednisolone acetate] | 0.6367 |
| CCC1(c2ccccc2)C(=O)NCNC1=O [Primidone] | 0.8914 |

same assay, conditions: NCI-H292 cells, FDA library drug in cholesterol-free media with simvastatin 0.04 μM

| Structure (SMILES) | Cholesterol-free media + simvastatin (0.04 μM) |
| --- | --- |
| C[n+]1ccccc1/C=N/O.[Cl-] [Pralidoxime (chloride)] | 1.051 |
| CC(C(=O)O)c1ccc2c(c1)Cc1cccnc1O2 (stereo not drawn) [Pranoprofen] | 1.474 |
| O=C(C1CCCCC1)N1CC(=O)N2CCc3ccccc3C2C1 (stereo not drawn) [Praziquantel] | 1.644 |

same assay, conditions: NCI-H292 cells, FDA library drug in complete media

| Structure (SMILES) | Complete Media |
| --- | --- |
| C[n+]1ccccc1/C=N/O.[Cl-] [Pralidoxime (chloride)] | 0.7574 |
| CC(C(=O)O)c1ccc2c(c1)Cc1cccnc1O2 (stereo not drawn) [Pranoprofen] | 1.136 |
| O=C(C1CCCCC1)N1CC(=O)N2CCc3ccccc3C2C1 (stereo not drawn) [Praziquantel] | 1.108 |

same assay, conditions: complete media minus cholesterol-free media + simvastatin; >0 enhanced anti-cancer activity, about 0 neutral, <0 antagonist

| Structure (SMILES) | Difference |
| --- | --- |
| CC[C@@H]([C@H](C)O)n1ncn(-c2ccc(N3CCN(c4ccc(OC[C@@H]5CO[C@@](Cn6cncn6)(c6ccc(F)cc6F)C5)cc4)CC3)cc2)c1=O [Posaconazole] | 0.40 |
| CCCN[C@H]1CCc2nc(N)sc2C1 [Pramipexole (dihydrochloride hydrate)] | 0.18 |
| CCCCOc1ccc(OCCCN2CCOCC2)cc1 [Pramocaine (hydrochloride)] | 0.40 |
| O=C(Nc1cccc2c(=O)cc(-c3nnn[nH]3)oc12)c1ccc(OCCCCc2ccccc2)cc1 [Pranlukast] | 0.43 |

same assay, conditions: complete media vs cholesterol-free media + simvastatin (0.04 μM); >0 enhanced anti-cancer activity, about 0 neutral, <0 antagonist

| Structure (SMILES) | Difference |
| --- | --- |
| C#CCC(Cc1cnc2nc(N)nc(N)c2n1)c1ccc(C(=O)N[C@@H](CCC(=O)O)C(=O)O)cc1 (stereo partly drawn) [Pralatrexate] | −0.10 |
| CC(C(=O)O)c1ccc2c(c1)Cc1cccnc1O2 (stereo not drawn) [Pranoprofen] | −0.34 |
| CC(=O)Oc1cc2c(s1)CCN(C(C(=O)C1CC1)c1ccccc1F)C2 (stereo not drawn) [Prasugrel] | −0.10 |
| O=C(C1CCCCC1)N1CC(=O)N2CCc3ccccc3C2C1 (stereo not drawn) [Praziquantel] | −0.54 |
| COc1cc2nc(N3CCN(C(=O)c4ccco4)CC3)nc(N)c2cc1OC [Prazosin (hydrochloride)] | −0.15 |
| CC(=O)OCC(=O)[C@@]1(O)CC[C@H]2[C@@H]3CCC4=CC(=O)C=C[C@]4(C)[C@H]3[C@@H](O)C[C@@]21C [Prednisolone acetate] | −0.11 |
| CCC1(c2ccccc2)C(=O)NCNC1=O [Primidone] | −0.09 |

same assay, conditions: complete media vs cholesterol-free media + simvastatin (0.04 μM); […]

| Structure (SMILES) | Difference |
| --- | --- |
| C[n+]1ccccc1/C=N/O.[Cl-] [Pralidoxime (chloride)] | −0.29 |
| C[n+]1ccccc1C=NO.[I-] [Pralidoxime (iodide)] | −0.11 |

tested on: NCI-H292 lung cancer cells; assay: FDA drug screening, complete media vs cholesterol-free media without statin (TABLE 1); type: cell-based, human; conditions: Complete minus Cholesterol-free; >0 enhanced anti-cancer activity, about 0 neutral, <0 antagonist

| Structure (SMILES) | Difference |
| --- | --- |
| C#CCC(Cc1cnc2nc(N)nc(N)c2n1)c1ccc(C(=O)N[C@@H](CCC(=O)O)C(=O)O)cc1 (stereo partly drawn) [Pralatrexate] | 0.03 |
| CCCN[C@H]1CCc2nc(N)sc2C1 [Pramipexole (dihydrochloride hydrate)] | 0.05 |

same assay, conditions: Complete minus Cholesterol-free; […]

| Structure (SMILES) | Difference |
| --- | --- |
| C[n+]1ccccc1/C=N/O.[Cl-] [Pralidoxime (chloride)] | −0.31 |
| C[n+]1ccccc1C=NO.[I-] [Pralidoxime (iodide)] | −0.07 |

same assay, conditions: Complete minus Cholesterol-free; greater than 0 enhanced anti-cancer activity, about 0 neutral, below 0 antagonist

| Structure (SMILES) | Difference |
| --- | --- |
| O=C(Nc1cccc2c(=O)cc(-c3nnn[nH]3)oc12)c1ccc(OCCCCc2ccccc2)cc1 [Pranlukast] | −0.10 |

same assay, conditions: Complete minus Cholesterol-free; greater than 0 enhanced anti-cancer activity, about 0 neutral, below 0 antagonists

| Structure (SMILES) | Difference |
| --- | --- |
| CC[C@@H]([C@H](C)O)n1ncn(-c2ccc(N3CCN(c4ccc(OC[C@@H]5CO[C@@](Cn6cncn6)(c6ccc(F)cc6F)C5)cc4)CC3)cc2)c1=O [Posaconazole] | −0.60 |
| COc1cc2nc(N3CCN(C(=O)c4ccco4)CC3)nc(N)c2cc1OC [Prazosin (hydrochloride)] | −0.52 |
| CCC1(c2ccccc2)C(=O)NCNC1=O [Primidone] | −0.48 |

same assay, conditions: NCI-H292 cells in cholesterol-free media without statin

| Structure (SMILES) | Cholesterol-free |
| --- | --- |
| CC[C@@H]([C@H](C)O)n1ncn(-c2ccc(N3CCN(c4ccc(OC[C@@H]5CO[C@@](Cn6cncn6)(c6ccc(F)cc6F)C5)cc4)CC3)cc2)c1=O [Posaconazole] | 1.481 |
| COc1cc2nc(N3CCN(C(=O)c4ccco4)CC3)nc(N)c2cc1OC [Prazosin (hydrochloride)] | 1.627 |
| CCC1(c2ccccc2)C(=O)NCNC1=O [Primidone] | 1.462 |

same assay, conditions: NCI-H292 cells in complete media

| Structure (SMILES) | Complete |
| --- | --- |
| CC[C@@H]([C@H](C)O)n1ncn(-c2ccc(N3CCN(c4ccc(OC[C@@H]5CO[C@@](Cn6cncn6)(c6ccc(F)cc6F)C5)cc4)CC3)cc2)c1=O [Posaconazole] | 0.8852 |
| COc1cc2nc(N3CCN(C(=O)c4ccco4)CC3)nc(N)c2cc1OC [Prazosin (hydrochloride)] | 1.105 |
| CCC1(c2ccccc2)C(=O)NCNC1=O [Primidone] | 0.9788 |

same assay, conditions: NCI-H292 cells, FDA drug library screen, cholesterol-free media without statin

| Structure (SMILES) | Cholesterol-free |
| --- | --- |
| C[n+]1ccccc1C=NO.[I-] [Pralidoxime (iodide)] | 1.049 |
| O=C(Nc1cccc2c(=O)cc(-c3nnn[nH]3)oc12)c1ccc(OCCCCc2ccccc2)cc1 [Pranlukast] | 0.9973 |

same assay, conditions: NCI-H292 cells, FDA drug library screen, complete media

| Structure (SMILES) | Complete |
| --- | --- |
| C[n+]1ccccc1C=NO.[I-] [Pralidoxime (iodide)] | 0.9757 |
| O=C(Nc1cccc2c(=O)cc(-c3nnn[nH]3)oc12)c1ccc(OCCCCc2ccccc2)cc1 [Pranlukast] | 0.8953 |

same assay, conditions: NCI-H292 cells, cholesterol-free media without statin

| Structure (SMILES) | Cholesterol-free |
| --- | --- |
| C[n+]1ccccc1/C=N/O.[Cl-] [Pralidoxime (chloride)] | 1.203 |
| CCCCOc1ccc(OCCCN2CCOCC2)cc1 [Pramocaine (hydrochloride)] | 1.301 |
| O=C(C1CCCCC1)N1CC(=O)N2CCc3ccccc3C2C1 (stereo not drawn) [Praziquantel] | 1.485 |
| CC(=O)OCC(=O)[C@@]1(O)CC[C@H]2[C@@H]3CCC4=CC(=O)C=C[C@]4(C)[C@H]3[C@@H](O)C[C@@]21C [Prednisolone acetate] | 0.9263 |

same assay, conditions: NCI-H292 cells, cholesterol-free media without statin, FDA drug library screen

| Structure (SMILES) | Cholesterol-free |
| --- | --- |
| C#CCC(Cc1cnc2nc(N)nc(N)c2n1)c1ccc(C(=O)N[C@@H](CCC(=O)O)C(=O)O)cc1 (stereo partly drawn) [Pralatrexate] | 0.04874 |
| CCCN[C@H]1CCc2nc(N)sc2C1 [Pramipexole (dihydrochloride hydrate)] | 0.8255 |
| CC(C(=O)O)c1ccc2c(c1)Cc1cccnc1O2 (stereo not drawn) [Pranoprofen] | 0.6134 |
| CC(=O)Oc1cc2c(s1)CCN(C(C(=O)C1CC1)c1ccccc1F)C2 (stereo not drawn) [Prasugrel] | 1.483 |

same assay, conditions: NCI-H292 cells, complete media

| Structure (SMILES) | Complete |
| --- | --- |
| C[n+]1ccccc1/C=N/O.[Cl-] [Pralidoxime (chloride)] | 0.8976 |
| CCCCOc1ccc(OCCCN2CCOCC2)cc1 [Pramocaine (hydrochloride)] | 0.9298 |
| O=C(C1CCCCC1)N1CC(=O)N2CCc3ccccc3C2C1 (stereo not drawn) [Praziquantel] | 1.043 |
| CC(=O)OCC(=O)[C@@]1(O)CC[C@H]2[C@@H]3CCC4=CC(=O)C=C[C@]4(C)[C@H]3[C@@H](O)C[C@@]21C [Prednisolone acetate] | 0.6003 |

same assay, conditions: NCI-H292 cells, complete media, FDA drug library screen

| Structure (SMILES) | Complete |
| --- | --- |
| C#CCC(Cc1cnc2nc(N)nc(N)c2n1)c1ccc(C(=O)N[C@@H](CCC(=O)O)C(=O)O)cc1 (stereo partly drawn) [Pralatrexate] | 0.07794 |
| CCCN[C@H]1CCc2nc(N)sc2C1 [Pramipexole (dihydrochloride hydrate)] | 0.873 |
| CC(C(=O)O)c1ccc2c(c1)Cc1cccnc1O2 (stereo not drawn) [Pranoprofen] | 1.137 |
| CC(=O)Oc1cc2c(s1)CCN(C(C(=O)C1CC1)c1ccccc1F)C2 (stereo not drawn) [Prasugrel] | 1.769 |

same assay, conditions: complete vs cholesterol-free media; >0 enhanced anti-cancer activity, about 0 neutral, <0 antagonist

| Structure (SMILES) | Difference |
| --- | --- |
| CC(C(=O)O)c1ccc2c(c1)Cc1cccnc1O2 (stereo not drawn) [Pranoprofen] | 0.52 |
| CC(=O)Oc1cc2c(s1)CCN(C(C(=O)C1CC1)c1ccccc1F)C2 (stereo not drawn) [Prasugrel] | 0.29 |

same assay, conditions: complete vs cholesterol-free media; greater than 0 enhanced anti-cancer activity, about 0 neutral, below 0 antagonists

| Structure (SMILES) | Difference |
| --- | --- |
| CCCCOc1ccc(OCCCN2CCOCC2)cc1 [Pramocaine (hydrochloride)] | −0.37 |
| O=C(C1CCCCC1)N1CC(=O)N2CCc3ccccc3C2C1 (stereo not drawn) [Praziquantel] | −0.44 |
| CC(=O)OCC(=O)[C@@]1(O)CC[C@H]2[C@@H]3CCC4=CC(=O)C=C[C@]4(C)[C@H]3[C@@H](O)C[C@@]21C [Prednisolone acetate] | −0.33 |
